Measurements taken from ChEMBL document CHEMBL1201862, “PubChem BioAssay data set” (2004).
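Tested at 5 concentrations; 48 h exposure; 96-well plates; endpoints linearly interpolated, else capped at highest concentration. The concentration for 50% growth inhibition is given as GI50.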 Calls of active or inactive are those of the source. Rule as the data show it: active = GI50 up to about 1.1 µM and inactive = higher.

Experiments:
Test in all cases: growth of human tumour cells (NCI), 48 h
786-0 = system: 786-0
A498 = system: A498
A549 = system: A549
ACHN = system: ACHN
CAKI-1 = system: CAKI-1
COLO 205 = system: COLO 205
DLD-1 = system: DLD-1
DMS-114 = system: DMS-114
DMS-273 = system: DMS-273
EKVX = system: EKVX
HCT-116 = system: HCT-116
HCT-15 = system: HCT-15
HL-60 = system: HL-60
HOP-62 = system: HOP-62
HOP-92 = system: HOP-92
HT-29 = system: HT-29
IGROV-1 = system: IGROV-1
K562 = system: K562
KM-20L2 = system: KM-20L2
LOX IMVI = system: LOX IMVI
LXFL 529 = system: LXFL 529
M14 = system: M14
M19-MEL = system: M19-MEL
MOLT-4 = system: MOLT-4
Malme-3M = system: Malme-3M
NCI-H226 = system: NCI-H226
NCI-H23 = system: NCI-H23
NCI-H460 = system: NCI-H460
NCI-H522 = system: NCI-H522
OVCAR-3 = system: OVCAR-3
OVCAR-4 = system: OVCAR-4
OVCAR-5 = system: OVCAR-5
OVCAR-8 = system: OVCAR-8
RPMI-8226 = system: RPMI-8226
RXF 393 = system: RXF 393
SF-268 = system: SF-268
SF-295 = system: SF-295
SF-539 = system: SF-539
SK-MEL-28 = system: SK-MEL-28
SK-MEL-2 = system: SK-MEL-2
SK-MEL-5 = system: SK-MEL-5
SK-OV-3 = system: SK-OV-3
SN12C = system: SN12C
SNB-19 = system: SNB-19
SNB-75 = system: SNB-75
SNB-78 = system: SNB-78
SW-620 = system: SW-620
TK-10 = system: TK-10
UACC-257 = system: UACC-257
UACC-62 = system: UACC-62
UO-31 = system: UO-31
XF498 = system: XF498
BT-549 = system: BT-549
CCRF-CEM = system: CCRF-CEM
DU-145 = system: DU-145
HCC 2998 = system: HCC 2998
Hs-578T = system: Hs-578T
KM12 = system: KM12
MCF7 = system: MCF7
MDA-MB-231 = system: MDA-MB-231
MDA-MB-435 = system: MDA-MB-435
MDA-N = system: MDA-N
NCI/ADR-RES = system: NCI/ADR-RES
PC-3 = system: PC-3
SR = system: SR
T47D = system: T47D
U-251 = system: U-251

CC(C)=CC(=O)Cc1nc2ccc([N+](=O)[O-])cc2[nH]c1=O
GI50 (786-0): > 100 µM (inactive) | GI50 (A498): > 100 µM (inactive) | GI50 (A549): > 100 µM (inactive) | GI50 (ACHN): > 100 µM (inactive) | GI50 (CAKI-1): > 100 µM (inactive) | GI50 (COLO 205): > 100 µM (inactive) | GI50 (DLD-1): 72.1 µM (inactive) | GI50 (DMS-114): 51.3 µM (inactive) | GI50 (DMS-273): > 100 µM (inactive) | GI50 (EKVX): > 100 µM (inactive) | GI50 (HCT-116): > 100 µM (inactive) | GI50 (HCT-15): > 100 µM | GI50 (HL-60): 40.8 µM (inactive) | GI50 (HOP-62): > 100 µM (inactive) | GI50 (HOP-92): > 100 µM (inactive) | GI50 (HT-29): > 100 µM (inactive) | GI50 (IGROV-1): > 100 µM (inactive) | GI50 (K562): 83.8 µM (inactive) | GI50 (KM-20L2): > 100 µM (inactive) | GI50 (LOX IMVI): > 100 µM (inactive) | GI50 (LXFL 529): 53.7 µM (inactive) | GI50 (M14): > 100 µM (inactive) | GI50 (M19-MEL): > 100 µM (inactive) | GI50 (MOLT-4): 25.2 µM (inactive) | GI50 (Malme-3M): > 100 µM (inactive) | GI50 (NCI-H226): > 100 µM (inactive) | GI50 (NCI-H23): > 100 µM (inactive) | GI50 (NCI-H460): > 100 µM (inactive) | GI50 (NCI-H522): 23.9 µM (inactive) | GI50 (OVCAR-3): > 100 µM (inactive) | GI50 (OVCAR-4): > 100 µM (inactive) | GI50 (OVCAR-5): > 100 µM (inactive) | GI50 (OVCAR-8): > 100 µM (inactive) | GI50 (RPMI-8226): 17.3 µM (inactive) | GI50 (RXF 393): > 100 µM (inactive) | GI50 (SF-268): > 100 µM (inactive) | GI50 (SF-295): > 100 µM (inactive) | GI50 (SF-539): > 100 µM (inactive) | GI50 (SK-MEL-28): > 100 µM (inactive) | GI50 (SK-MEL-2): > 100 µM (inactive) | GI50 (SK-MEL-5): 22.6 µM (inactive) | GI50 (SK-OV-3): > 100 µM (inactive) | GI50 (SN12C): > 100 µM (inactive) | GI50 (SNB-19): > 100 µM (inactive) | GI50 (SNB-75): 18.5 µM (inactive) | GI50 (SNB-78): > 100 µM (inactive) | GI50 (SW-620): > 100 µM (inactive) | GI50 (TK-10): > 100 µM (inactive) | GI50 (UACC-257): > 100 µM (inactive) | GI50 (UACC-62): > 100 µM (inactive) | GI50 (UO-31): 63.1 µM (inactive) | GI50 (XF498): 41.3 µM (inactive)

COCOC1/C=C/CCCC#C[C@H](C)C(=O)CC1 (some centres undefined)
GI50 (786-0): 4.21 µM (inactive) | GI50 (A498): 12.1 µM (inactive) | GI50 (A549): 8.07 µM (inactive) | GI50 (ACHN): 14.2 µM (inactive) | GI50 (BT-549): 12.6 µM (inactive) | GI50 (CAKI-1): 11.5 µM (inactive) | GI50 (CCRF-CEM): 3.13 µM (inactive) | GI50 (COLO 205): 5.45 µM (inactive) | GI50 (DU-145): 14.6 µM (inactive) | GI50 (EKVX): 10.4 µM (inactive) | GI50 (HCC 2998): 14.6 µM (inactive) | GI50 (HCT-116): 2.33 µM (inactive) | GI50 (HCT-15): 8.57 µM | GI50 (HL-60): 2.32 µM (inactive) | GI50 (HOP-62): 19.5 µM (inactive) | GI50 (HOP-92): 4.4 µM (inactive) | GI50 (HT-29): 3.69 µM (inactive) | GI50 (Hs-578T): 15.5 µM (inactive) | GI50 (IGROV-1): 9.27 µM (inactive) | GI50 (K562): 2.7 µM (inactive) | GI50 (KM12): 4.85 µM (inactive) | GI50 (LOX IMVI): 3.05 µM (inactive) | GI50 (M14): 8.15 µM (inactive) | GI50 (MCF7): 5.55 µM (inactive) | GI50 (MDA-MB-231): 4.25 µM (inactive) | GI50 (MDA-MB-435): 7 µM (inactive) | GI50 (MDA-N): 11.4 µM (inactive) | GI50 (MOLT-4): 2.96 µM (inactive) | GI50 (Malme-3M): 6.68 µM (inactive) | GI50 (NCI-H226): 19.6 µM (inactive) | GI50 (NCI-H23): 5.97 µM (inactive) | GI50 (NCI-H460): 8.73 µM (inactive) | GI50 (NCI-H522): 5.7 µM (inactive) | GI50 (NCI/ADR-RES): 11.8 µM (inactive) | GI50 (OVCAR-3): 6.12 µM (inactive) | GI50 (OVCAR-4): 7.83 µM (inactive) | GI50 (OVCAR-5): 7.38 µM (inactive) | GI50 (OVCAR-8): 14.5 µM (inactive) | GI50 (PC-3): 8.69 µM (inactive) | GI50 (RPMI-8226): 2.21 µM (inactive) | GI50 (RXF 393): 8.41 µM (inactive) | GI50 (SF-268): 12.2 µM (inactive) | GI50 (SF-295): 16.3 µM (inactive) | GI50 (SF-539): 16.2 µM (inactive) | GI50 (SK-MEL-28): 15.2 µM (inactive) | GI50 (SK-MEL-2): 15 µM (inactive) | GI50 (SK-MEL-5): 8.77 µM (inactive) | GI50 (SK-OV-3): 15.8 µM (inactive) | GI50 (SN12C): 11.2 µM (inactive) | GI50 (SNB-19): 17.9 µM (inactive) | GI50 (SNB-75): 11.1 µM (inactive) | GI50 (SR): 3.46 µM (inactive) | GI50 (SW-620): 2.71 µM (inactive) | GI50 (T47D): 9.04 µM (inactive) | GI50 (TK-10): 15.2 µM (inactive) | GI50 (U-251): 12.2 µM (inactive) | GI50 (UACC-257): 6.05 µM (inactive) | GI50 (UACC-62): 10 µM (inactive) | GI50 (UO-31): 14.8 µM (inactive)

COc1c(Cl)cc(Cl)cc1S(=O)O
GI50 (A498): > 100 µM (inactive) | GI50 (ACHN): > 100 µM (inactive) | GI50 (CCRF-CEM): > 100 µM (inactive) | GI50 (DLD-1): > 100 µM (inactive) | GI50 (DMS-114): > 100 µM (inactive) | GI50 (EKVX): > 100 µM (inactive) | GI50 (HCC 2998): > 100 µM (inactive) | GI50 (HCT-116): > 100 µM (inactive) | GI50 (HL-60): > 100 µM (inactive) | GI50 (HOP-62): > 100 µM (inactive) | GI50 (HT-29): > 100 µM (inactive) | GI50 (K562): > 100 µM (inactive) | GI50 (KM12): > 100 µM (inactive) | GI50 (LOX IMVI): > 100 µM (inactive) | GI50 (LXFL 529): > 100 µM (inactive) | GI50 (M14): > 100 µM (inactive) | GI50 (M19-MEL): > 100 µM (inactive) | GI50 (MOLT-4): > 100 µM (inactive) | GI50 (Malme-3M): > 100 µM (inactive) | GI50 (NCI-H23): > 100 µM (inactive) | GI50 (NCI-H460): > 100 µM (inactive) | GI50 (NCI-H522): > 100 µM (inactive) | GI50 (OVCAR-3): > 100 µM (inactive) | GI50 (OVCAR-4): > 100 µM (inactive) | GI50 (OVCAR-5): > 100 µM (inactive) | GI50 (RXF 393): > 100 µM (inactive) | GI50 (SF-268): > 100 µM (inactive) | GI50 (SF-539): > 100 µM (inactive) | GI50 (SK-MEL-28): > 100 µM (inactive) | GI50 (SK-MEL-2): > 100 µM (inactive) | GI50 (SK-OV-3): > 100 µM (inactive) | GI50 (SN12C): > 100 µM (inactive) | GI50 (SNB-19): > 100 µM (inactive) | GI50 (SNB-75): > 100 µM (inactive) | GI50 (SNB-78): > 100 µM (inactive) | GI50 (SR): > 100 µM (inactive) | GI50 (TK-10): > 100 µM (inactive) | GI50 (U-251): > 100 µM (inactive) | GI50 (UACC-257): > 100 µM (inactive) | GI50 (UACC-62): > 100 µM (inactive) | GI50 (UO-31): > 100 µM (inactive) | GI50 (XF498): > 100 µM (inactive)

COc1ccc2c(c1)-c1nn(CCCN(C)C)c3ccc([N+](=O)[O-])c(c13)N2 [PYRAZOLOACRIDINE]
GI50 (786-0): 0.191 µM (active) | GI50 (CAKI-1): 0.396 µM (active) | GI50 (DLD-1): 0.262 µM (active) | GI50 (DMS-273): 0.135 µM (active) | GI50 (DU-145): 0.484 µM (active) | GI50 (HCT-116): 0.0986 µM (active) | GI50 (HT-29): 0.137 µM (active) | GI50 (Hs-578T): 0.603 µM (active) | GI50 (M14): 0.61 µM (active) | GI50 (MCF7): 0.333 µM (active) | GI50 (MOLT-4): 0.0662 µM (active) | GI50 (NCI-H23): 0.662 µM (active) | GI50 (NCI/ADR-RES): 0.0986 µM (active) | GI50 (OVCAR-8): 0.118 µM (active) | GI50 (RPMI-8226): 0.305 µM (active) | GI50 (SF-268): 0.283 µM (active) | GI50 (SK-MEL-2): 0.647 µM (active) | GI50 (SK-MEL-5): 0.536 µM (active) | GI50 (SN12C): 0.199 µM (active) | GI50 (SR): 0.173 µM (active) | GI50 (SW-620): 0.133 µM (active)
